The results in this text go back to US20040147739A1, “Novel anti-infectives” (priority 2003, published 2004).

T1 sequence (P26663 2420-3010): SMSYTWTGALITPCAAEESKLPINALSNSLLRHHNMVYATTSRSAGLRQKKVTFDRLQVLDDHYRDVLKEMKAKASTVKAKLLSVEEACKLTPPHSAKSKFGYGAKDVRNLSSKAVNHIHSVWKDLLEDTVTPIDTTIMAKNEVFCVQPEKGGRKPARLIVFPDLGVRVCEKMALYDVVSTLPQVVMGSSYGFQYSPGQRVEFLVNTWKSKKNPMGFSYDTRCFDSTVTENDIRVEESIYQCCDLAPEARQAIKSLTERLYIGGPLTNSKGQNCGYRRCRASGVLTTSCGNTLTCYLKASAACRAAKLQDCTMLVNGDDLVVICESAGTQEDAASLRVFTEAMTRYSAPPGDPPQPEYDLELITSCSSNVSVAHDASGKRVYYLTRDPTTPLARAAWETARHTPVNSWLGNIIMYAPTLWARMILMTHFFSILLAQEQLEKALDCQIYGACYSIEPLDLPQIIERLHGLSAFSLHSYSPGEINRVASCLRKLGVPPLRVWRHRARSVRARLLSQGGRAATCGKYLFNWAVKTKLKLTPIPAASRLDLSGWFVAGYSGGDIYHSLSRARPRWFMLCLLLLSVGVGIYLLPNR

One assay concerns the target T1, HCV NS5B (Hepatitis C virus genotype 1b, UniProt P26663).
T1 construct: The NS5B protein (591 amino acids, 65 kDa) of HCV
The assay can be described thus: biochemical.
Details: not given
On the procedure:
The activity of the inventive compounds as inhibitors of HCV activity may be measured by any of the suitable methods known to those skilled in the art, including in vivo and in vitro assays. For example, the HCV NS5B inhibitory activity of the compounds of Formulas I, II and III was determined using standard assay procedures described in Behrens et al., EMBO J. 15:12-22 (1996), Lohmann et al., Virology 249:108-118 (1998) and Ranjith-Kumar et al., J. Virology 75:8615-8623 (2001).
The HCV NS5B inhibitory activity of the compounds of Formulas I, II m and IV was determined using standard procedures well known to those skilled in the art and described in, for example Behrens et al., EMBO J. 15:12-22 (1996), Lohmann et al., Virology 249:108-118 (1998) and Ranjith-Kumar et al., J. Virology 75:8615-8623 (2001).
The term IC50 denotes the midpoint of a concentration-inhibition curve. A high value points to a need for much substance. As for `CC(C)CCc1cccc2c(O)c(C3=NS(=O)(=O)c4ccccc4N3)c(=O)[nH]c12` [Example 186, 3-(1,1-Dioxo-1,4-dihydro-1-benzo[1,2,4]thiadiazin-3-yl)-4-hydroxy-8-(3-methylbutyl)-1H-quinolin-2-one], the IC50 was above 10 µM.
The same measure, in the same setting: in the case of `COc1ccc(C(=O)Nc2ccc3c(c2)c(O)c(C2=NS(=O)(=O)c4ccccc4N2)c(=O)n3CCC(C)C)cc1` [Example 37, N-[3-(1,1-Dioxo-1,4-dihydrobenzo[1,2,4]thiadiazin-3-yl)-4-hydroxy-1-(3-methylbutyl)-2-oxo-1,2dihydroquinolin-6-yl]4-methoxybenzamide] it was above 10 µM.
`NC(=O)CCCn1c(=O)c(C2=Nc3ccccc3S(=O)(=O)N2)c(O)c2ccccc21` [Example 170, 4-[3-(1,1-Dioxo-1,2-dihydrobenzo[1,2,4]thiadiazin-3-yl)-4-hydroxy-2-oxoquinolin-1-yl]butyramide]: the IC50 was above 10 µM.
In the case of `CC(C)CCn1c(=O)c(C2=NS(=O)(=O)c3ccccc3N2)c(O)c2cc(I)ccc21` [Example 185, 3-(1,1-Dioxo-1,4-dihydro-1-benzo[1,2,4]thiadiazin-3-yl)-4-hydroxy-6-iodo-1-(3-methylbutyl)-1H-quinolin-2-one], the IC50 was above 10 µM.
`O=c1c(C2=NS(=O)(=O)c3ccccc3N2)c(O)c2ccccc2n1CCCc1ccccc1` [Example 3]: the IC50 was above 10 µM.
In turn, `O=c1c(C2=Nc3ccccc3S(=O)(=O)N2)c(O)c2ccccc2n1Cc1ccccc1[N+](=O)[O-]` [Example 196, 3-(1,1-Dioxo-1,4-dihydro-1-benzo[1,2,4]thiadiazin-3-yl)-4-hydroxy-1-(2-nitro-benzyl)-1H-quinolin-2-one] gave an IC50 above 10 µM.
`O=c1c(C2=NS(=O)(=O)c3ccccc3N2)c(O)c2ccccc2n1CCO` [Example 193, 3-(1,1-Dioxo-1,4-dihydro-1-benzo[1,2,4]thiadiazin-3-yl)-4-hydroxy-1-(2-hydroxyethyl)-1H-quinolin-2-one] showed an IC50 above 10 µM.
Take `CC(C)CCn1c(=O)c(C2=Nc3ccccc3S(=O)(=O)N2)c(O)c2ccc(Br)cc21` [Example 173, 7-bromo-3-(1,1-dioxo-1,2-dihydrobenzo[1,2,4]thiadiazin-3-yl)-4-hydroxy-1-(3-methylbutyl)-1H-quinolin-2-one]: the IC50 was above 10 µM.
Still for that read-out and setting: then `Cc1ccc(F)cc1Cn1c(=O)c(C2=NS(=O)(=O)c3ccccc3N2)c(O)c2ccccc21` [Example 195, 3-(1,1-Dioxo-1,4-dihydro-1-benzo[1,2,4]thiadiazin-3-yl)-1-(5-fluoro-2-methyl-benzyl)4-hydroxy-1H-quinolin-2-one], with above 10 µM.
The compound `COc1ccc(CCNC(=O)c2ccc3c(c2)S(=O)(=O)N=C(c2c(O)c4ccccc4n(CCC4CC4)c2=O)N3)cc1` [Example 102, 3-[1-(2-Cyclopropylethyl)-4-hydroxy-2-oxo-1,2-dihydroquinolin-3-yl]-1,1-dioxo-1,4 dihydroenzo[1,2,4]thiadiazine-7-carboxylic acid [2-(4-methoxyphenyl)ethyl]amide] showed an IC50 above 10 µM.
On the same count and under the same terms, in the case of `CCOC(=O)CCCn1c(=O)c(C2=NS(=O)(=O)c3ccccc3N2)c(O)c2ccccc21` [Example 182, 4-[3-(1,1-Dioxo-1,4-dihydro-1-benzo[1,2,4]thiadiazin-3-yl)-4-hydroxy-2-oxo-2H-quinolin-1-yl]-butyric acid ethyl ester] it was above 10 µM; in that of `CCOC(=O)c1ccc2c(c1)c(O)c(C1=NS(=O)(=O)c3ccccc3N1)c(=O)n2CCC(C)C` [Example 95, 3-(1, i-Dioxo-1,4-dihydrobenzo[1,2,4]thiadiazin-3-yl)-4-hydroxy-1-(3-methylbutyl)-2-oxo-1,2-dihydroquinoline-6-carboxylic acid ethyl ester], above 10 µM.
Take `N#Cc1ccccc1Cn1c(=O)c(C2=Nc3ccccc3S(=O)(=O)N2)c(O)c2ccccc21` [Example 2, 3-(1,1-Dioxo-1,2-dihydrobenzo[1,2,4]thiadiazin-3-yl)-4-hydroxy-1-(2-cyanobenzyl)-1H-quinolin-2-one]: the IC50 was above 10 µM.
The compound `CC(C)CCn1c(=O)c(C2=Nc3ccccc3S(=O)(=O)N2)c(O)c2ccc(C(=O)O)cc21` [Example 171, 3-(1,1-Dioxo-1,2-dihydrobenzo[1,2,4]thiadiazin-3-yl)-4-hydroxy-1-(3-methylbutyl)-2-oxo-1,2-dihydro-quinoline-7-carboxylic acid] showed an IC50 above 10 µM.
Take `CC(C)CCn1c(=O)c(C2=NS(=O)(=O)c3cc(I)ccc3N2)c(O)c2ccccc21` [Example 181, 4-Hydroxy-3-(7-iodo-1,1-dioxo-1,4-dihydro-1-benzo[1,2,4]thiadiazin-3-yl)-1-(3-methylbutyl)-1H-quinolin-2-one]: the IC50 is above 10 µM.
On the same count and under the same terms, then `CC(C)CCn1c(=O)c(C2=NS(=O)(=O)c3ccccc3N2)c(O)c2c(C(=O)O)cccc21` [Example 188, 3-(1,1-Dioxo-1,4-dihydro-1-benzo[1,2,4]thiadiazin-3-yl)-4-hydroxy-1-(3-methylbutyl)-2-oxo-1,2-dihydro-quinoline-5-carboxylic acid], with above 10 µM.
`O=c1c(C2=NS(=O)(=O)c3ccccc3N2)c(O)c2ccccc2n1CCc1ccccc1` [Example 1]: the IC50 was above 10 µM.
On to `O=C(O)CCCn1c(=O)c(C2=Nc3ccccc3S(=O)(=O)N2)c(O)c2ccccc21` [Example 183, 4-[3-(1,1-Dioxo-1,4-dihydro-1-benzo[1,2,4]thiadiazin-3-yl)-4-hydroxy-2-oxo-2H-quinolin-1-yl]-butyric acid], for which the half-maximal inhibitory concentration (IC50) is above 10 µM.
Take `CN(C)CCn1c(=O)c(C2=Nc3ccccc3S(=O)(=O)N2)c(O)c2ccccc21` [Example 190, 1-(2-Dimethylamino-ethyl)-3-(1,1-dioxo-1,4-dihydro-1-benzo[1,2,4]thiadiazin-3-yl)-4-hydroxy-1H-quinolin-2-one]: the IC50 is above 10 µM.

Still in this assay, the particulars now being: screening rate of 10 uM.
For `O=c1c(C2=Nc3ccccc3S(=O)(=O)N2)c(O)c2ccccc2n1-c1ccccc1` [Example 201, 3-(1,1-Dioxo-1,2-dihydrobenzo[1,2,4]thiadiazin-3-yl)-4-hydroxy-1-phenyl-1H-quinolin-2-one], the “biological activity at the screening rate of 10 uM” value (“biological activity” below) is recorded as “did not demonstrate biological activity”.
As for `NCCCCn1c(=O)c(C2=Nc3ccccc3S(=O)(=O)N2)c(O)c2ccccc21` [Example 200, 1-(4-Aminobutyl)-3-(1,1-dioxo-1,2-dihydrobenzo[1,2,4]thiadiazin-3-yl)-4-hydroxy-1-1H-quinolin-2-one], the “biological activity” value is listed as “did not demonstrate biological activity”.
Still for that read-out and setting: in the case of `CC(C)(C)c1ccc(Cn2c(=O)c(C3=NS(=O)(=O)c4ccccc4N3)c(O)c3ccccc32)cc1` [Example 208, 1-(4-tert-Butylbenzyl)-3-(1,1-dioxo-1,4-dihydro-1-benzo[1,2,4]thiadiazin-3-yl)-4-hydroxy-1H-quinolin-2-one] it was “did not demonstrate biological activity”; in that of `CC(C)CCn1c(=O)c(C2=Nc3ccccc3S(=O)(=O)N2)c(O)c2ccc([N+](=O)[O-])cc21` [Example 198, 3-(1,1-Dioxo-1,2-dihydrobenzo[1,2,4]thiadiazin-3-yl)-4-hydroxy-1-(3-methylbutyl)-7-nitro-1H-quinolin-2-one], “did not demonstrate biological activity”.
The same measure, in the same setting: in the case of `CC(C)CCn1c(=O)c(C2=NS(=O)(=O)c3ccccc3N2)c(O)c2cc(C(=O)N(C)C)ccc21` [Example 206, 3-(1,1-Dioxo-1,4-dihydro-1-benzo[1,2,4]thiadiazin-3-yl)-4-hydroxy-1-(3-methylbutyl)-2-oxo-1,2-dihydro-quinoline-6-carboxylic acid dimethylamide] it was “did not demonstrate biological activity”; in that of `O=c1c(C2=NS(=O)(=O)c3ccccc3N2)c(O)c2ccccc2n1CCN1CCCC1` [Example 207, 3-(1,1-Dioxo-1,4-dihydro-1-benzo[1,2,4]thiadiazin-3-yl)-4-hydroxy-1-(2-pyrrolidin-1-yl-ethyl)-1H-quinolin-2-one], “did not demonstrate biological activity”.
Still for that read-out and setting: in the case of `CC(C)CCn1c(=O)c(C2=NS(=O)(=O)c3ccccc3N2)c(O)c2ccc(/C=C/C(N)=O)cc21` [Example 204, (E)-3-[3-(1,1-Dioxo-1,4-dihydro-1-benzo[1,2,4]thiadiazin-3-yl)-4-hydroxy-1-(3-methylbutyl)-2-oxo-1,2-dihydro-quinolin-7-yl]acrylamide] it was “did not demonstrate biological activity”; in that of `CC(C)CCn1c(=O)c(C2=Nc3ccccc3S(=O)(=O)N2)c(O)c2ccc(Cl)cc21` [Example 199, 7-Chloro-3-(1,1-dioxo-1,2-dihydrobenzo[1,2,4]thiadiazin-3-yl)-4-hydroxy-1-(3-methylbutyl)-H-quinolin-2-one], “did not demonstrate biological activity”; in that of `CC(C)CCn1c(=O)c(C2=NS(=O)(=O)c3c(Br)cccc3N2)c(O)c2ccccc21` [Example 203, 3-(8-Bromo-1,1-dioxo-1,4-dihydro-1-benzo[1,2,4]thiadiazin-3-yl)-4-hydroxy-1-(3-methylbutyl)-1H-quinolin-2-one], “did not demonstrate biological activity”.
`CC(C)CCOc1ccc2c(c1)c(O)c(C1=NS(=O)(=O)c3ccccc3N1)c(=O)n2CC(=O)OC(C)(C)C` [Example 205, [3-(1,1-Dioxo-1,4-dihydro-1-benzo[1,2,4]thiadiazin-3-yl)-4-hydroxy-6-(3-methyl-butoxy)-2-oxo-2H-quinolin-1-yl]acetic acid tert-butyl ester]: the “biological activity” value is “did not demonstrate biological activity”.
